# Experimental data taken from US12152077B1, “Immunotherapy targeting tumor neoantigenic peptides” (INSTITUT CURIE, priority 2019, dated 2024).
# Entries after “also recorded” stand apart in the source; their conditions may differ.
# Key:
# [1] = system: CD8+ T cells from HLA-A2+ healthy donors; assay: Priming of naive CTLs by peptide-loaded autologous moDCs (immunogenicity, tetramer staining); assay type: cell-based, human; conditions: for specific CD8+ T expansions (immunogenicity): total of 6 donors, FIG. 11A; for expansion of specific CD8+ T cells (tetramer positive): one donor, versus co-culture without peptides
# Procedure: Priming of naïve CTLs. PBMCs were obtained by Ficoll gradient separation from HLA-A2+ healthy blood donors. CD14+, CD4+ and CD8+ cells were purified by positive selection using magnetic beads (Miltenyi Biotec). While CD4+ and CD8+ T cells were cryopreserved until the experiment day, CD14+ fraction was cultured in the presence of IL-4 (50 ng/mL) and GM-CSF (10 ng/ml) at 10^6 cells/mL during 5 days to obtain moDCs. After this period of time, the moDCs were maturated with LPS and incubated with synthetic ER-derived peptides at a final concentration of 1 μg/mL for 2 hours. Finally, peptide-loaded moDCs were co-cultured with autologous CD4+ and CD8+ T cells in culture medium supplemented with IL-2 (10 U/ml) and IL-7 (100 ng/ml). The ER-derived peptide stimulation of specific CD8+ CTL populations was assessed by MHC-I tetramer staining by flow cytometry using a combination of two-color tetramer for each peptide.
# (§1) Tetramer Staining. Cells were resuspended in PBS, stained with Live/Dead Aqua-405 nm (ThermoFisher) during 20 minutes at 4° C. and washed once. After that, cells were resuspended in PBS-1% BSA containing the mix of SA-coupled tetramers and incubated in the dark at room temperature during 20 minutes. Without further washing, surface antibodies were added in PBS-1% BSA and cells were incubated 20 minutes in the dark at 4° C. Surface antibodies were a combination of anti-CD3-BV650+ anti-CD8-PECy7 in combination with anti-CCR7-AF700+ anti-CD45RA-BUV395 when required. Finally, cells were washed twice and resuspended in FACS buffer for flow cytometry analysis.
# The following step after binding validation to HLA-A2 allele, was to test the immunogenicity of predicted peptides. Priming assays were thus performed to test the ability of identified peptides to expand specific cytotoxic T cells. PBMCs from HLA-A2+ healthy donors were used to generate monocyte derived-DCs (moDCs). After loading the moDCs with a mix of synthetic peptides, autologous co-culture was performed with CD4+ and CD8+ T cells. Finally, the expansion of specific CD8+ T cells was analysed by flow cytometry using two-colours tetramer staining. As a control of specific expansion, the co-culture was performed in the absence of peptides. […] The same experiment was performed in order to evaluate the response in additional 5 donors.
# [2] = system: TILs derived from LUAD patients; assay: Tetramer staining of expanded tumor infiltrating lymphocytes (TILs); assay type: cell-based, human; conditions: TILs expanded with peptide mix + IL-2 or IL-2 only; HLA-A2+ LUAD patients
# Procedure: as §1
# Tumor infiltrating lymphocytes (TILs) cultures. Tumor tissue was cut into small pieces (1-3 mm3 size, 6-12 pieces maximum). Each tumor fragment was transferred into individual wells from 24-well plates and cultured in a final volume of 2 ml RPMI 10% Human Serum+IL-2 6000 IU/ml. Cells were feed/split as necessary during 15-20 days and cryopreserve or analyzed for tetramer staining.
# In a first set of experiments tumor infiltrating lymphocytes (TILs) expanded with a mix of TE-derived peptides and Il-2, or only with Il-2, were analyzed by tetramer staining. As is shown in FIGS. 13A and B, we found CD8+ T-cells cells recognizing fusion-derived peptides in TILs derived from LUAD patients.
Sequence,specific CD8+ T expansions (immunogenicity) [1],CD8+ T cells recognizing peptide in TILs (tetramer positive) [2],expansion of specific CD8+ T cells (tetramer positive) [1]
GLPSHVELA,specific CD8+ T expansions; also recorded: immunogenic,found TILs recognizing,–
ILSGYGPCV,specific CD8+ T expansions,–,–
VLLTNTIWL,specific CD8+ T expansions,–,–
RLLHLESFL,–,–,expand specific CD8+ T cells
SLMQSGSPV,specific CD8+ T expansions,–,–
FLGTRVTRV,specific CD8+ T expansions,–,–
MLVTWELAL,specific CD8+ T expansions,–,–
LLGETKVYV,specific CD8+ T expansions,–,expand specific CD8+ T cells
RLADHLSFC,specific CD8+ T expansions; also recorded: immunogenic,–,expand specific CD8+ T cells
LLHLESFLV,specific CD8+ T expansions,–,–
GLLNISHTA,specific CD8+ T expansions,–,–
LLDRFGYHV,specific CD8+ T expansions,–,–
ILTASITSI,specific CD8+ T expansions,–,–
RQAPGFHHA,specific CD8+ T expansions,–,–
ILHSLVTGV,specific CD8+ T expansions,–,–
AMDGKELSL,specific CD8+ T expansions,–,–
MLMKTVWQA,specific CD8+ T expansions,–,–
LLTSWHLYL,specific CD8+ T expansions,–,–
AILPKANTV,specific CD8+ T expansions,–,expand specific CD8+ T cells
FLIVAEILI,–,–,expand specific CD8+ T cells
YLWTTFFPL,specific CD8+ T expansions,–,expand specific CD8+ T cells
